Data: article PMC6125784 (Cell chemical biology, 2018)

Target: T1, CobL (Rhodobacter capsulatus, UniProt D5AV04)
T1 sequence (D5AV04 1-396): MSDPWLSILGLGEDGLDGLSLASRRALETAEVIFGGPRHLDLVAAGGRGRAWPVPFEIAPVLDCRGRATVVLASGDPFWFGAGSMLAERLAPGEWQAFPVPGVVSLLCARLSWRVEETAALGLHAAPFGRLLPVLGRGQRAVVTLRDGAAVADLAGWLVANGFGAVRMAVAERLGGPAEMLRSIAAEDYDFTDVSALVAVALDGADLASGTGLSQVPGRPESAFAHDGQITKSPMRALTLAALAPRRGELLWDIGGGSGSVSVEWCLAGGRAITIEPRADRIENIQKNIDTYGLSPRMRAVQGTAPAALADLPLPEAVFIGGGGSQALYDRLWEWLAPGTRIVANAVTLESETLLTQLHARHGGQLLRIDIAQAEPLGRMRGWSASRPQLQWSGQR
Experiment: C5 alkylation coupled to CobH, UV-visible and HPLC-MS
Type: biochemical
Conditions: CobH 30 uM, pH 8.0, 28°C

Row | Compound | C5 alkylation coupled to CobH, UV-visible and HPLC-MS (precorrin-7 60 uM) | C5 alkylation coupled to CobH, UV-visible and HPLC-MS (allyl-SAM 170 uM)
1 | C=CC[S+](CC[C@H](N)C(=O)O)C[C@H]1O[C@@H](n2cnc3c(N)ncnc32)[C@H](O)[C@@H]1O (some centres unmarked) [allyl-SAM] | When precorrin-7 was incubated with CobL, CobH, and allyl-SAM the color | –
2 | CC1=C(CCC(=O)O)C2=N[C@@]1(C)CC1=C(CCC(=O)O)[C@](C)(CC(=O)O)C(=N1)/C=C1\N[C@@](C)([C@@H]3N=C(C2C)[C@](C)(CCC(=O)O)[C@H]3CC(=O)O)[C@@](C)(CC(=O)O)[C@@H]1CCC(=O)O (some centres unmarked) [precorrin-7] | – | When precorrin-7 was incubated with CobL, CobH, and allyl-SAM the color
